From US7223728B2, “Synergistic use of thiazolidinediones with glucagon-like peptide-1 and agonists thereof to treat metabolic instability associated with non-insulin dependent diabetes” (Eli Lilly and Company, priority 1999, dated 2007)

Tested on: Zucker Diabetic Fatty (ZDF) rats
Experiment: Seven-week co-administration study of TZD 300512 and IP^7-GLP-1 (7–37)OH in diabetic rats (heart weight, blood glucose, insulin)
Type: in vivo, rat
From the text: This study was designed to evaluate the effects of using a combination of sub-optimal doses of a TZD and a GLP-1 agonist on glucose metabolism and in addition, if this combination therapy would prevent occurrence of heart hypertrophy that is associated with optimal doses of TZD derivatives. Eight week old Zucker Diabetic Fatty (Genetic Models, Inc.) rats (ZDF) weighing about 350 grams were used in this study. Animals were allowed free access to water, and Purina Formulab 5008 chow. TZD 300512 was administered as 0.00006% diet admixture while IP^7-GLP-1 (7–37)OH, a GLP-1 agonist, was infused subcutaneously at a constant rate of 0.06 ug/min via implant Aztet pumps. The duration of study was seven weeks, and food consumption and body weight were monitored daily. Plasma glucose and insulin levels were measured weekly, and Glycated hemoglobin A1c was measured at the end of the study. Heart weights also were measured at the end of the study.
Table 1 summarizes final rat weight, daily food intake, plasma glucose levels, plasma insulin levels, Hbalc, and heart weight. Values were rounded off to the nearest decimal point.

[1] = ZDF rats, TZD 0.00006% diet admixture, IP^7 0.06 ug/min subcutaneous infusion, seven weeks
[2] = ZDF rats, measured at the end of the seven-week study

4-imidazopropionyl-GLP-1 (7–37)OH [IP^7]
Glucose (plasma glucose level) (ZDF rats, fed state, TZD 0.00006% diet admixture, IP^7 0.06 ug/min subcutaneous infusion, seven weeks): 367.5 ± 58.0 mg/dL | Food Int (daily food intake) [1]: 30.4 ± 1.2 g/day | Insulin (plasma insulin level) [1]: 13.0 ± 2.9 ng/mL | Weight (final rat weight) [1]: 414.7 ± 7.9 g | Hbalc (glycated hemoglobin A1c) [2]: 9.5 ± 1.0% | Heart wt [2]: 1.2 ± 0.03 g | Fed state plasma-glucose level as % of control levels (diabetic ZDF rats, 42-day treatment period): 57.5 % of control levels | Course of plasma glucose levels over the 42-day treatment period (diabetic rats, 42-day treatment): increased
